According to US20080118980A1, “Estrogen Enhancing Differentiation of Human Mesenchymal Stromal Cells and Adipose-derived Stromal Cells” (The Board of Trustees of the University of Illinois,, priority 2006, published 2008):

Legend:
human ASCs = experiment: Adipogenic differentiation of ASCs modulated by E2 (Example 2); format: cell-based; details: for increase of elution of Oil-O-Red staining: vs differentiation without estrogen, FIG. 7C
Description: Because estrogen receptors (ERs) exist in adipose tissues (Dieudonne et al. (2004) Am J Physiol Cell Physiol. 286:C655-661), it is hypothesized that estrogen can also modulate the differentiation potentials of ASCs. All the experiments using human ASCs were performed under an approved IRB protocol of the University of Illinois at Chicago. Human abdomen subcutaneous adipose tissue was obtained from a healthy person with lipo-aspirated surgery. ASCs were isolated from adipose tissue according to previous studies (Hong et al. (2006) Cells Tissues Organs. 183 (3):133-40). Briefly, adipose tissue was finely minced and then digested with 0.075 wt % collagenase type I (Sigma, St Louis, Mo.) at 37° C. for 45 min with intermittent shaking. The cells were collected by filtration with a cell strainer with pore size of 100 μm diameter (Fisher Scientific, Barrington, Ill.). The harvested cells were cultured in a Dulbecco's Modified Eagle's Medium (DMEM), 15% fetal bovine serum (FBS) and 1% antibiotic-antimycotic at 10^6 cells/100 mm dish. Upon reaching 80-90% confluence, the isolated cells were trypsinized, counted, and subcultured at a density of 10^5 cells/100 mm dish as passage-1. The cells used for study are passage-3.
The basic DMEM medium supplemented with 50 nM of dexamethasone, […] and 5 mM of isobutyl-methylxanthine (IBMX) was used to differentiate ASCs into adipocytes (Hong et al. (2005) Ann Biomed Eng. 33:511-517). At 70% confluence of ASCs in 12-well plates, the basic DMEM medium was exchanged for the adipogenic differentiation medium. The effects of estrogen on adipogenic differentiation were observed after E2 supplements at concentrations ranging from 10^−8 to 10^−11M. On day 4, the cells were collected for analysis of adipogenic and ER gene expressions. On day 7, adipogenic differentiation of ASCs modulated by estrogen was analyzed by Oil-O-Red staining and quantitative measurements. Each treatment group included four samples.
On the defined day, cells cultured in 12-well plates were washed twice with phosphate buffered solution (PBS), suspended and lysed in 1% Triton-X100 solution (Sigma, St. Louis, Mo.). The collected cells were subsequently homogenized using sonication (Dismembrator Model 100, Fisher Scientific, Barrington, Ill.). The DNA content in the cells was determined by a fluorometric assay using a spectrofluorometer and DNA quantification kit (Hoechst 33258, Bio-Rad, Hercules, Calif.). The total protein concentrations of lysates were measured by a simple colorimetric assay based on the Bradford dye-binding procedure (Bio-Rad, Hercules, Calif.). The amount of protein was normalized by the unit of DNA.
After 7 days of incubation with adipogenic differentiation medium supplemented with different concentrations of E2, cultured cells were fixed in 10% neutral buffered formalin for 15 min and washed with PBS twice. Cells were immersed in a 60% Oil-O-Red solution in PBS (Sigma, St Louis, Mo.) for 60 min. In order to quantify adipogenic potentials, the images of Oil-O-Red stained at each well were randomly taken by a digital camera connected to a computer monitor. The Oil-O-Red positive cells on the screen were double-blindly counted. Five pictures were taken from each well. The cell numbers were normalized to per mm^2. Oil-O-Red dye then was eluted by 500 μl of 100% isopropanol for each well of cultured cells. The spectrophotometric absorbance of the resulting solution was quantified at 510 nm.
Total RNA was extracted from the various differentiated cells using TRizol reagent (Invitrogen, Carlsbad, Calif.). Approximately 5 μg of total RNA was converted to single stranded cDNA using a commercial cDNA synthesis kit (Invitrogen, Carlsbad, Calif.). […]

[1] = tested on: human bone marrow mesenchymal stem cells (MSCs); experiment: Proliferation of human bone marrow MSCs in basic medium with E2 or E3 (MTS, Example 3); format: cell-based
Description: This study investigates the mitogenic effects of estrogen receptor ligands on human bone marrow MSCs that is not contacted with osteogenic or adipogenic medium. Purified human bone marrow mesenchymal stem cells (MSCs) were purchased commercially. MSCs were respectively exposed to basic medium (DMEM+10% FBS+1% antibiotics), and basic medium supplement with 10^−6 and 10^−9 M 17-β estradiol (E2) and estriol (E3) for approximately one week. Then, various cells were plated into 96-well plates in 500 cells/well and continued to be exposed to the media. After 4 days, cell densities were measured by MTS methods and compared to initial densities. FIG. 8 illustrates the increase of the number of MSCs after being treated with basic medium and basic medium supplemented with E2 or E3.

C[C@]12CC[C@@H]3c4ccc(O)cc4CC[C@H]3[C@@H]1CC[C@@H]2O [E2, 17-β estradiol]
ERβ expression (RT-PCR) (human ASCs; 4 days, FIG. 6): undetected
ERα expression (RT-PCR) (human ASCs; 4 days, no ERα band without E2 supplement, FIG. 6): expressed
DNA amount (human ASCs; 7 days adipogenic media with E2 supplements, FIG. 7A): decreased
number of Oil-O-Red positively stained cells (human ASCs; 7 days, FIG. 7B): increased
population of lipid-containing cells (human ASCs; ASCs after E2 supplement, Oil-O-Red staining): increased population
increase of elution of Oil-O-Red staining (human ASCs; estrogen 10^−8 M, 7 days): 33.9%
increase of elution of Oil-O-Red staining (human ASCs; estrogen 10^−9 M, 7 days): 25.5%
effects on adipogenesis at low concentrations (human ASCs; estrogen supplement at low concentrations): hardly observed
cell proliferation (MTS assay and cell counting) ([1]; 10^−6 and 10^−9 M, about one week then 4 days in 96-well plates, FIG. 8): greatly increased
differentiation capabilities (adipogenic and osteogenic) of modulated MSCs ([1]; vs controls): maintain their differentiation capabilities
